Data from patent publication US12037317B2, “Synthesis of 3-hydroxybutyryl 3-hydroxybutyrate and related compounds” (Buck Institute for Research on Aging, priority 2018, dated 2024).
“Also recorded” adds a separate entry of the source.

Key:
[1] = humans on a normal diet, ingested orally; cited from earlier work
[2] = ingested as a drink, compared to equivalent calories as carbohydrate; cited from earlier work
[3] = system: T1, histone deacetylases (HDAC); experiment: in vitro HDAC assay (Fluor de Lys Green kit, Enzo); format: biochemical; conditions: sodium salt
T1 construct: other: sodium salt; Fluor de Lys Green kit; same assay as S-BHB
Protocol: (§1) The activity of S-BHB and R-BHB enantiomers in inhibiting histone deacetylases was tested. This is an in vitro HDAC assay performed using the sodium salt of S-BHB and R-BHB with a commercial assay kit, Fluor de Lys Green from Enzo.

[4] = system: histone deacetylases (HDAC); experiment: in vitro HDAC assay (Fluor de Lys Green kit, Enzo); format: biochemical; conditions: comparison with a different, previously published assay
Protocol: as §1

[5] = disclosed in co-owned U.S. Provisional Application No. 62/535,754; cited from earlier work

| IC50 ([3]; Fluor de Lys Green kit, read-out: HDAC inhibition IC50) [mM] | SMILES | level of ketosis [1] [µM] | performance in cycling time-trial test [2] | inhibition of deacetylase activity (in words) [3] | maximum inhibition of HDAC activity ([3]; same assay as S-BHB) | potency for HDAC inhibition relative to published potency of R-BHB in a different assay (Shimazu et al., Science 2013) [4] [fold] | serum half-life compared to the R-enantiomer [5] |
| --- | --- | --- | --- | --- | --- | --- | --- |
|  | C[C@@H](O)CCOC(=O)C[C@@H](C)O [R-3-hydroxybutyryl R-3-hydroxybutyrate, (R) 3-hydroxybutyryl (R) 3-hydroxy butyrate] | ~6000 | improved performance |  |  |  |  |
|  | C[C@@H](O)CC(=O)O [R-BHB, R-β-Hydroxybutyrate, reference compound] |  |  | partial inhibition | about 50% |  |  |
| 7.3 | C[C@H](O)CC(=O)O [S-BHB, (S)-β-hydroxybutyric acid] |  |  | even more effective than R-BHB; also recorded: dose-dependent inhibition |  | ≤ 2 | substantially improved |
